# Laboratory results as given in patent US11800842B2, “Method for obtaining adventitious tetraploid bud of Blumea balsamifera” (Tropical Crops Genetic Resources Institute, Chinese Academy …, priority 2021, dated 2023).
# Legend:
# Format in all cases: cell-based, Blumea balsamifera
# [1] = system: B. balsamifera somatic cells; test: Effects of different 6-BA concentrations on induction of adventitious tetraploid buds from root segments; settings: for Induction rate %: MS Medium with 0.05 mg/L NAA, 120 mg/L colchicine, root segment about 6.0 cm, 60 days
# Source text: (§1) In the examples, effective root segment refers to uncontaminated root segment; induction rate refers to the percentage of the total number of adventitious tetraploid buds formed by induction accounting for the total number of diploid explants, and the calculation formula is: induction rate (%)=(total number of adventitious tetraploid buds/total number of diploid explants)×100%. Chimera rate (%)=(total number of adventitious buds of chimera/total number of adventitious buds)×100%.
# MS Medium was used as a basal medium, which was supplemented with 0.05 mg/L NAA, 120 mg/L colchicine, 30 g/L sucrose, 6 g/L agar, and 6-BA of different concentrations (0, 1.0, 1.5, and 2.0 mg/L, respectively, 0 mg/L as the control group). Culture media were prepared individually, segmented root tissues (with a root segment length of about 6.0 cm) were inoculated, and contaminated root explants were excluded after 60 days. The number of tetraploid buds was counted, and the doubling efficiency was calculated.
# [2] = system: B. balsamifera somatic cells; test: Effects of different colchicine concentrations on induction of adventitious tetraploid buds from root segments; settings: for Induction rate %: MS Medium with 1.0 mg/L 6-BA, 0.05 mg/L NAA, root segment about 4.0 cm, 60 days
# Source text: as §1
# MS Medium was used as a basal medium, which was supplemented with 1.0 mg/L 6-BA, 0.05 mg/L NAA, 30 g/L sucrose, 6 g/L agar, and colchicine of different concentrations (50, 70, 90, 120, and 150 mg/L, respectively). Culture media were prepared individually, and segmented root tissues (with a root segment length of about 4.0 cm) were inoculated. Chromosome ploidy identification was conducted on the formed adventitious buds after 60 days. The number of adventitious tetraploid buds was counted, and the doubling induction rate was calculated.
# [3] = system: root explants of diploid B. balsamifera; test: Effects of different NAA concentrations on induction of adventitious tetraploid buds from root segments; settings: for Induction rate %: MS Medium with 1.0 mg/L 6-BA, 120 mg/L colchicine, root segment about 4.0 cm, 60 days
# Source text: as §1
# MS Medium was used as a basal medium, which was supplemented with 1.0 mg/L 6-BA, 120 mg/L colchicine, 30 g/L sucrose, 6 g/L agar, and NAA of different concentrations (0, 0.025, 0.05, 0.075, and 0.1 mg/L, respectively, 0 mg/L as the control group). Culture media were prepared individually, and segmented root tissues (with a root segment length of about 4.0 cm) were inoculated. Chromosome ploidy identification was conducted on adventitious buds after 60 days. The number of adventitious tetraploid buds was counted, and the induction rate was calculated.
structure (smiles),measurement,setting,value
"c1ccc(CNc2ncnc3nc[nH]c23)cc1 [6-BA, 6-benzylaminopurine]",effect of inducing the doubling of the somatic cells of the root explants and dedifferentiating into adventitious tetraploid buds,"[1]; 6-BA 1.0 mg/L, compared with 0, 1.5 and 2.0 mg/L",optimal
same,Induction rate %,[1]; 6-BA 1.0 mg/L,7.75%
same,Induction rate %,[1]; 6-BA 1.5 mg/L,5.5%
same,Induction rate %,[1]; 6-BA 2.0 mg/L,4.17%
"COc1cc2c(c(OC)c1OC)-c1ccc(OC)c(=O)cc1[C@@H](NC(C)=O)CC2 [Colchicine, colchicine]",Induction rate %,[2]; colchicine 50 mg/L,0%
same,Induction rate %,[2]; colchicine 70 mg/L,0%
same,Induction rate %,[2]; colchicine 90 mg/L,2.08%
same,effect of inducing root explants of diploid B. balsamifera to form adventitious tetraploid buds,"[2]; colchicine 120 mg/L, compared with 50, 70, 90 and 150 mg/L",optimal
same,Induction rate %,[2]; colchicine 120 mg/L,10.42%
same,Induction rate %,[2]; colchicine 150 mg/L,4.17%
"O=C(O)Cc1cccc2ccccc12 [NAA, 1-naphthaleneacetic acid]",Induction rate %,[3]; NAA 0.025 mg/L,2.08%
same,doubling effect,"[3]; NAA 0.05 mg/L, compared with 0, 0.025, 0.075 and 0.1 mg/L",optimal
same,Induction rate %,[3]; NAA 0.05 mg/L,10.42%
same,Induction rate %,[3]; NAA 0.075 mg/L,4.17%
same,Induction rate %,[3]; NAA 0.1 mg/L,3.13%
